Literature values as cited in PMC8155967, “Investigating the Potential of Transdermal Delivery of Avanafil Using Vitamin E-TPGS Based Mixed Micelles Loaded Films” (Pharmaceutics, 2021).
Converted amounts (≈) assume the structure as drawn.

partition coefficient: 2.78 | solubility in water: 30 µg/mL (≈ 62 µM)
SMILES: COc1ccc(CN=c2[nH]c(N3CCC[C@H]3CO)ncc2C(=O)NCc2ncccn2)cc1Cl [AVA, Avanafil]
